Consider one compound from EP1683514B1, “Process for the preparation of concentrated suspensions of drugs and kit thereof” (Eratech S.r.l., priority 2005, dated 2006).

Structures are written as SMILES.

A short description of series [1]: Purity test after β or γ irradiation (degradation of the pharmaceutical substance). It is filed as physicochemical. The settings on record: powder. As for the experimental part: A test of microbial count was then carried out on the irradiated suspensions to determine if a satisfactory sterility was achieved. A purity test was also carried out to determine if any degradation of the pharmaceutical substance budesonide was provoked by the irradiation treatment. As a comparison, a test of microbial count and purity was carrier out also on a sample of micronized budesonide powder. A test of microbial count was then carried out on the irradiated suspensions to determine if a satisfactory sterility was achieved. A purity test was also carried out to determine if any degradation of the pharmaceutical substance BDP was provoked by the irradiation treatment. As a comparison, a test of microbial count and purity was carrier out also on a sample of micronized BDP powder.

Series [2] can be described thus: Particle size distribution of the micronized powder. It is filed as physicochemical. As for the experimental part: Micronized Beclomethasone Dipropionate (BDP) powder was added slowly under stirring the solution so obtained. The micronized powder had the following particle size distribution: d(0.1) 0.44 µm, d(0.5) 1.13 µm e d(0.9) 2.42 µm.
Micronized Budesonide powder was added slowly under stirring the solution so obtained. The micronized powder had the following particle size distribution: d(0.1) 0.50 µm, d(0.5) 1.39µm; d(0.9) 3.15 µm.
180 mg of BDP micronized powder were added to the solution so prepared. PSD of the powder was: d(0.1) 0.44 µm, d(0.5) 1.13 µm e d(0.9) 2.42 µm, namely the same PSD of the BDP powder used to prepare the concentrated suspensions of examples 1 - 4.

For the compound `CCC(=O)OCC(=O)[C@@]1(OC(=O)CC)[C@@H](C)C[C@H]2[C@@H]3CCC4=CC(=O)C=C[C@]4(C)[C@@]3(Cl)[C@@H](O)C[C@@]21C` [BDP Powder, Beclomethasone Dipropionate], the Purity in series [1] (BETA IRRADIATION 0 KGy) is given as 99.73%; in series [1] (BETA IRRADIATION 2 KGy) it was 99.73%; in series [1] (BETA IRRADIATION 4 KGy), 99.66%; in series [1] (BETA IRRADIATION 6 KGy), 99.67%; in series [1] (BETA IRRADIATION 8 KGy), 99.51%; in series [1] (BETA IRRADIATION 10 KGy) it was 99.49%. For the same compound, the Purity in series [1] (GAMMA IRRADIATION 0 KGy) is on record as 99.73%; in series [1] (GAMMA IRRADIATION 2 KGy), 99.73%; in series [1] (GAMMA IRRADIATION 4 KGy) it was 99.68%; in series [1] (GAMMA IRRADIATION 6 KGy), 99.70%; in series [1] (GAMMA IRRADIATION 8 KGy) it was 99.07%. Moreover, the “particle size distribution d(0.1)” value in series [2] was found to be 0.44 µm. In series [2], the “particle size distribution d(0.5)” value amounted to 1.13 µm. Also, the “particle size distribution d(0.9)” value in series [2] turned out to be 2.42 µm.
